# Measurements from the kinase profiling compilation of Christmann-Franck et al. (2016).
# Columns and labels:
# Experiment in all cases: radiometric filter-binding kinase assay, Kinase HotSpot
# Conditions in all cases: compound 0.5 µM; ATP 10 µM
# [1] = target: NEK4 (human) (UniProt P51957)
# [2] = target: GSG2 (human) (UniProt Q8TF76)
# [3] = target: GSK3B (human) (UniProt P49841)
# [4] = target: MAP3K11 (human) (UniProt Q16584)
# [5] = target: CLK3 (human) (UniProt P49761)
# [6] = target: EPHA7 (human) (UniProt Q15375)
# EPHA7 (human), sequence (Q15375 whole entry, looked up): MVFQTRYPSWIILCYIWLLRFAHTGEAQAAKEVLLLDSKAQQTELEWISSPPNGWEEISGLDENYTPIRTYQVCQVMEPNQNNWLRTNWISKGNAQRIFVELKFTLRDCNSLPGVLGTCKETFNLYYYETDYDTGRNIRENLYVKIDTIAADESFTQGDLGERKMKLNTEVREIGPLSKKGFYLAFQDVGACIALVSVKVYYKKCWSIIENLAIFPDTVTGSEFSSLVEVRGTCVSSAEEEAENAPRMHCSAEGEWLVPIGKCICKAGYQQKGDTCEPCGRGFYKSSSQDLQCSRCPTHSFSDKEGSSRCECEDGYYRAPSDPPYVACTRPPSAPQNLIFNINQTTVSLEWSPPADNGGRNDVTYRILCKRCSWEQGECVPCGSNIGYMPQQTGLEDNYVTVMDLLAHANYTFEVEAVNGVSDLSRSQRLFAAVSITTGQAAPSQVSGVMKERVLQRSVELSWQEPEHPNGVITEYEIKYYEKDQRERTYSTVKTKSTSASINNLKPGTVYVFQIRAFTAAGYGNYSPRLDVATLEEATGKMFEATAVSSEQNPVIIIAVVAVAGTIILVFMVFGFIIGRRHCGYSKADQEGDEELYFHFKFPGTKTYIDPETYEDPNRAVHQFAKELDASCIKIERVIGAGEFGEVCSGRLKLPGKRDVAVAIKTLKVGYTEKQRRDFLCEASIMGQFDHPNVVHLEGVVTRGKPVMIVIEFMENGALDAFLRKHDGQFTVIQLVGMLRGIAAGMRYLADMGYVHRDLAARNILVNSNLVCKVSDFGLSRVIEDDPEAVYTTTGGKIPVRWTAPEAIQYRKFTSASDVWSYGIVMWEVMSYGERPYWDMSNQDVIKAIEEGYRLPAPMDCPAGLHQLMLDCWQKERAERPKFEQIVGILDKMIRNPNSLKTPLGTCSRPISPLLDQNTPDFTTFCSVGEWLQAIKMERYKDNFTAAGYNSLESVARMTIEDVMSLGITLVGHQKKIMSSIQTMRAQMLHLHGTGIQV
# [7] = target: SRC (human) (UniProt P12931)
# [8] = target: RPS6KA4 KD2 (human) (UniProt O75676)
# [9] = target: MUSK (human) (UniProt O15146)
# [10] = target: ROS1 (human) (UniProt P08922)
# [11] = target: MARK2 (human) (UniProt Q7KZI7)
# [12] = target: ALK (human) (UniProt Q9UM73)
# [13] = target: TLK2 (human) (UniProt Q86UE8)
# [14] = target: NEK9 (human) (UniProt Q8TD19)
# [15] = target: AKT3 (human) (UniProt Q9Y243)
# [16] = target: PRKD3 (human) (UniProt O94806)
# PRKD3 (human), sequence (O94806 whole entry, looked up): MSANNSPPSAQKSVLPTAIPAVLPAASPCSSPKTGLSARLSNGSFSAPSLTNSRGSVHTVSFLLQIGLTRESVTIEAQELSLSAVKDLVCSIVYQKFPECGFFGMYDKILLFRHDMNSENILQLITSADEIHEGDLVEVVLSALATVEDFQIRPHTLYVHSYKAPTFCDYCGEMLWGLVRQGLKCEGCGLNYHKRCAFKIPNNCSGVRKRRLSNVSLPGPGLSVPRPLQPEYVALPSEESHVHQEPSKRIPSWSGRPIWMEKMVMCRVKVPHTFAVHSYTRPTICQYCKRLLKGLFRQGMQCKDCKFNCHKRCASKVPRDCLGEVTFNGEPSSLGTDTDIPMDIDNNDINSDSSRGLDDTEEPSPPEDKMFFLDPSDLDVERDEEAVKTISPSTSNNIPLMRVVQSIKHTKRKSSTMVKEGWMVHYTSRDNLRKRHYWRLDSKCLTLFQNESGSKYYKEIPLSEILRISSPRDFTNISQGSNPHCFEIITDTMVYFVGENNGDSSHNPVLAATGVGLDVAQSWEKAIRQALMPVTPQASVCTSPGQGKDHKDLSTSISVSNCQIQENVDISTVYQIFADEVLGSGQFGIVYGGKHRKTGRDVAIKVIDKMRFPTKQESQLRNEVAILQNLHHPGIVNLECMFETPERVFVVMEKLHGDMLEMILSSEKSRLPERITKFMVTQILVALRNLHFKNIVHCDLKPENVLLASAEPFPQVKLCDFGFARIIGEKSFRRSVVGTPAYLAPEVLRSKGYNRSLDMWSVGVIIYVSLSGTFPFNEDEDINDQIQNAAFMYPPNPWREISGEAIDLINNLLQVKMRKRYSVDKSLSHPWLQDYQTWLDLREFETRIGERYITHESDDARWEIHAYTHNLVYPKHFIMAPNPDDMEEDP
# [17] = target: ABL2 (human) (UniProt P42684)
# [18] = target: RIPK2 (human) (UniProt O43353)
# [19] = target: TAOK2 (human) (UniProt Q9UL54)
# [20] = target: MINK1 (human) (UniProt Q8N4C8)
# [21] = target: HIPK3 (human) (UniProt Q9H422)
# [22] = target: CDK9 CCNT1 (human) (UniProt P50750+O60563)
# [23] = target: CAMK2A (human) (UniProt Q9UQM7)
# [24] = target: MLTK (human) (UniProt Q9NYL2)
# [25] = target: DAPK1 (human) (UniProt P53355)
# [26] = target: CSF1R (human) (UniProt P07333)
# [27] = target: ROCK1 (human) (UniProt Q13464)
# ROCK1 (human), sequence (Q13464 whole entry, looked up): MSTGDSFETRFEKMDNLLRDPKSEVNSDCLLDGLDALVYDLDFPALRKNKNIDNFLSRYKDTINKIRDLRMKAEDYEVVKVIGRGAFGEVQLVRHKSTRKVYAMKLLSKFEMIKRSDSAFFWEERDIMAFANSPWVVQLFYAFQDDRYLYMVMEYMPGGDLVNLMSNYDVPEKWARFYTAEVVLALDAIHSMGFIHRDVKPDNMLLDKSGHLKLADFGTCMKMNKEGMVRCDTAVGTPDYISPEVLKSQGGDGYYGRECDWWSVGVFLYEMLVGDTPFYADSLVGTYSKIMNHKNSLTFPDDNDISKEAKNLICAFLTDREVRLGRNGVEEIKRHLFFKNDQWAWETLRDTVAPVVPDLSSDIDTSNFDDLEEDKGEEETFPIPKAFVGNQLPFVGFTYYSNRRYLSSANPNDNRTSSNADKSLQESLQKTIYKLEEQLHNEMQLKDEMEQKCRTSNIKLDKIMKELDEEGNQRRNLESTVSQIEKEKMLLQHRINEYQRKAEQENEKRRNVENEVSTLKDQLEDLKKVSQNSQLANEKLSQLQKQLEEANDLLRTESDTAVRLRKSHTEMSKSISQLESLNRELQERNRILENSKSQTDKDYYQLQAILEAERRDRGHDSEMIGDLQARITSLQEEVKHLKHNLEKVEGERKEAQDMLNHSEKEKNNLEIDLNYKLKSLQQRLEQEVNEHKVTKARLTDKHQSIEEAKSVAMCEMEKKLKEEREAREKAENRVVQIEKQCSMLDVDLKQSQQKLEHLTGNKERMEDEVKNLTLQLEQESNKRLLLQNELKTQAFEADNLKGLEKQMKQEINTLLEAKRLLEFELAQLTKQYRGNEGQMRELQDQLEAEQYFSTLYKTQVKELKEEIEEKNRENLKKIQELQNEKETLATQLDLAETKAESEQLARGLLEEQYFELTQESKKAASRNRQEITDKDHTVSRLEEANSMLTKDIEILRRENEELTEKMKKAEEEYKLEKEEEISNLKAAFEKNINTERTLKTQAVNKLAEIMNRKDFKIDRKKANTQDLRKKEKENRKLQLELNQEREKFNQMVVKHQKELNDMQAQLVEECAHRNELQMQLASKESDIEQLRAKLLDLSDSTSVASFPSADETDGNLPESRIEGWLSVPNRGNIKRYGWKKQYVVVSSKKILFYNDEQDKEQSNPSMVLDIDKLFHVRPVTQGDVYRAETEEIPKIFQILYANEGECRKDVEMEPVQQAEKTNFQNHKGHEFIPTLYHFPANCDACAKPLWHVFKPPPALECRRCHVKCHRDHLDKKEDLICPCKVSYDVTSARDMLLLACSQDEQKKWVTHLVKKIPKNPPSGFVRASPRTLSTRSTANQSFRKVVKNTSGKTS
# [28] = target: NTRK3 (human) (UniProt Q16288)
# NTRK3 (human), sequence (Q16288 whole entry, looked up): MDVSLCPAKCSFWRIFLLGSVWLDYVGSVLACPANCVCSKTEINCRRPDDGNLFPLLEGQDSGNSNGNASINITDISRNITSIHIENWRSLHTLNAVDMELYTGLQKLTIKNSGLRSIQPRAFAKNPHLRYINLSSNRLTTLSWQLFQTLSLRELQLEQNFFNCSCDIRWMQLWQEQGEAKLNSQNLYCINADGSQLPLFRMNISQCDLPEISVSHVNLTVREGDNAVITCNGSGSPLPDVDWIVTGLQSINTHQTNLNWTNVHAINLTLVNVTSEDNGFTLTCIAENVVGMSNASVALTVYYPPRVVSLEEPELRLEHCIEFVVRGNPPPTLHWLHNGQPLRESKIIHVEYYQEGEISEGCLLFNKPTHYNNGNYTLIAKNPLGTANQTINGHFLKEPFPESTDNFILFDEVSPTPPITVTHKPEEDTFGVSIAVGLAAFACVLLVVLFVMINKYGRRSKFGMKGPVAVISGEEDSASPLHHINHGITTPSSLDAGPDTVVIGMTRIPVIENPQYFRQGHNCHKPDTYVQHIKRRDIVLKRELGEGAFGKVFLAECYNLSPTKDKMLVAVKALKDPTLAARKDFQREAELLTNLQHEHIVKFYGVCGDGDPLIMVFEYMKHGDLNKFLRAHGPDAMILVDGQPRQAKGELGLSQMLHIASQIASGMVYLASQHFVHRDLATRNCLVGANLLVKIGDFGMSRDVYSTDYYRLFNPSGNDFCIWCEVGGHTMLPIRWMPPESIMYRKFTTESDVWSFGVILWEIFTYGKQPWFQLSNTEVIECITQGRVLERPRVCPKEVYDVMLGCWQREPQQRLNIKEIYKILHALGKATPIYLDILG
# [29] = target: MAPK8 (human) (UniProt P45983)
# [30] = target: CDK5 CDK5R1 p35 (human) (UniProt Q00535+Q15078)
# [31] = target: PRKCB1 (human) (UniProt P05771)
# PRKCB1 (human), sequence (P05771 whole entry, looked up): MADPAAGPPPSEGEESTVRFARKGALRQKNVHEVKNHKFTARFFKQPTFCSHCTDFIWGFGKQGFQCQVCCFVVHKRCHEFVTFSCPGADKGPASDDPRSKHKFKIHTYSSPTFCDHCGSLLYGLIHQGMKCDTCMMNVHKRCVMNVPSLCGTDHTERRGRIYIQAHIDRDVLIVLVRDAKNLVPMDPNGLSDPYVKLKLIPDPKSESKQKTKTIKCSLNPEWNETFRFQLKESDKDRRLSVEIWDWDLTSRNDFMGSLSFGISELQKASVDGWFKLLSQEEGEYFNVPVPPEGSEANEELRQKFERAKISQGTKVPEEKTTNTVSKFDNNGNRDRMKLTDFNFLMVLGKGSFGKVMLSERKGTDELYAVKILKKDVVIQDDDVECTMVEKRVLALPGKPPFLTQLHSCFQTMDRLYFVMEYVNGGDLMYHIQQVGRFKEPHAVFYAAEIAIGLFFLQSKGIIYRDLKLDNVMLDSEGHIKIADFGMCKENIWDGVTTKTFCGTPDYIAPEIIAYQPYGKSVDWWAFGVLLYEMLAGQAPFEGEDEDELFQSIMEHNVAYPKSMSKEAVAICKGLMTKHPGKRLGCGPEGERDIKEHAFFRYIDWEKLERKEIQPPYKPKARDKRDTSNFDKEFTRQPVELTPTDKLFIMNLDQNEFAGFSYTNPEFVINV
# [32] = target: RPS6KA5 KD2 (human) (UniProt O75582)
# [33] = target: CDK4 CCND1 (human) (UniProt P24385+P11802)
# [34] = target: MAP3K14 (human) (UniProt Q99558)
# [35] = target: VRK1 (human) (UniProt Q99986)
# [36] = target: MAPK1 (human) (UniProt P28482)
# [37] = target: EPHB2 (human) (UniProt P29323)
# [38] = target: MET (human) (UniProt P08581)
# [39] = target: EPHB4 (human) (UniProt P54760)
# [40] = target: MAP3K7 TAB1 (human) (UniProt O43318+Q15750)
# [41] = target: CDK7 CCNH MNAT1 (human) (UniProt P50613+P51948+P51946)
structure (smiles),measurement,setting,value
Nc1ncnc2[nH]nc(Nc3ccc(F)cc3)c12,residual activity,[1],92.8%
same,residual activity,[2],87.7%
same,residual activity,[3],101%
same,residual activity,[4],93.9%
same,residual activity,[5],112%
same,residual activity,[6],101%
same,residual activity,[7],89.6%
same,residual activity,[8],114%
same,residual activity,[9],93.9%
same,residual activity,[10],99.9%
same,residual activity,[11],87%
same,residual activity,[12],88.9%
same,residual activity,[13],79%
same,residual activity,[14],97.9%
same,residual activity,[15],104%
same,residual activity,[16],86.7%
same,residual activity,[17],82.3%
same,residual activity,[18],68.7%
same,residual activity,[19],97.3%
same,residual activity,[20],88.9%
same,residual activity,[21],101%
same,residual activity,[22],99.1%
same,residual activity,[23],105%
same,residual activity,[24],88%
same,residual activity,[25],116%
same,residual activity,[26],101%
same,residual activity,[27],100%
same,residual activity,[28],81.5%
same,residual activity,[29],111%
same,residual activity,[30],98.6%
same,residual activity,[31],95.9%
same,residual activity,[32],96.7%
same,residual activity,[33],90.3%
same,residual activity,[34],111%
same,residual activity,[35],82.9%
same,residual activity,[36],80.8%
same,residual activity,[37],91.6%
same,residual activity,[38],124%
same,residual activity,[39],87.8%
same,residual activity,[40],100%
same,residual activity,[41],98.4%
Nc1ccc2ncnc(NCCc3ccc(Oc4ccccc4)cc3)c2c1,residual activity,[1],97.8%
same,residual activity,[2],96.9%
same,residual activity,[3],102%
same,residual activity,[4],103%
same,residual activity,[5],117%
same,residual activity,[6],104%
same,residual activity,[7],102%
same,residual activity,[8],107%
same,residual activity,[9],102%
same,residual activity,[10],97.8%
same,residual activity,[11],84.9%
same,residual activity,[12],108%
same,residual activity,[13],92.8%
same,residual activity,[14],95.8%
same,residual activity,[15],104%
same,residual activity,[16],98.1%
same,residual activity,[17],102%
same,residual activity,[18],94.6%
same,residual activity,[19],102%
same,residual activity,[20],95.4%
same,residual activity,[21],98.6%
same,residual activity,[22],101%
same,residual activity,[23],71.3%
same,residual activity,[24],102%
same,residual activity,[25],110%
same,residual activity,[26],106%
same,residual activity,[27],94.4%
same,residual activity,[28],98.4%
same,residual activity,[29],104%
same,residual activity,[30],103%
same,residual activity,[31],96.3%
same,residual activity,[32],98.3%
same,residual activity,[33],102%
same,residual activity,[34],109%
same,residual activity,[35],99.5%
same,residual activity,[36],90.1%
same,residual activity,[37],97.7%
same,residual activity,[38],99.9%
same,residual activity,[39],104%
same,residual activity,[40],96.2%
same,residual activity,[41],99.3%
N#CC(C#N)=C(N)/C(C#N)=C/c1ccc(O)cc1,residual activity,[1],93.3%
same,residual activity,[2],90.1%
same,residual activity,[3],89.5%
same,residual activity,[4],94.8%
same,residual activity,[5],100%
same,residual activity,[6],90.5%
same,residual activity,[7],92.3%
same,residual activity,[8],99.7%
same,residual activity,[9],103%
same,residual activity,[10],97.1%
same,residual activity,[11],91.3%
same,residual activity,[12],109%
same,residual activity,[13],89.4%
same,residual activity,[14],97.9%
same,residual activity,[15],95.8%
same,residual activity,[16],91.9%
same,residual activity,[17],94.9%
same,residual activity,[18],95.5%
same,residual activity,[19],97.3%
same,residual activity,[20],97.7%
same,residual activity,[21],102%
same,residual activity,[22],83.9%
same,residual activity,[23],103%
same,residual activity,[24],95.7%
same,residual activity,[25],92.7%
same,residual activity,[26],98%
same,residual activity,[27],100%
same,residual activity,[28],95.5%
same,residual activity,[29],100%
same,residual activity,[30],91.9%
same,residual activity,[31],114%
same,residual activity,[32],96.7%
same,residual activity,[33],100%
same,residual activity,[34],108%
same,residual activity,[35],103%
same,residual activity,[36],101%
same,residual activity,[37],97.1%
same,residual activity,[38],117%
same,residual activity,[39],88.1%
same,residual activity,[40],94.8%
same,residual activity,[41],91.2%
CC(C)N(CCC(=O)c1ccc2ccccc2c1)Cc1ccccc1,residual activity,[1],95.7%
same,residual activity,[2],95.6%
same,residual activity,[3],94.9%
same,residual activity,[4],97%
same,residual activity,[5],99.6%
same,residual activity,[6],106%
same,residual activity,[7],93.2%
same,residual activity,[8],109%
same,residual activity,[9],112%
same,residual activity,[10],113%
same,residual activity,[11],97.9%
same,residual activity,[12],88.9%
same,residual activity,[13],104%
same,residual activity,[14],96.4%
same,residual activity,[15],95.8%
same,residual activity,[16],98.1%
same,residual activity,[17],100%
same,residual activity,[18],78.3%
same,residual activity,[19],96.1%
same,residual activity,[20],101%
same,residual activity,[21],115%
same,residual activity,[22],96.4%
same,residual activity,[23],106%
same,residual activity,[24],90.5%
same,residual activity,[25],97.9%
same,residual activity,[26],98.6%
same,residual activity,[27],98.6%
same,residual activity,[28],103%
same,residual activity,[29],88%
same,residual activity,[30],103%
same,residual activity,[31],92.6%
same,residual activity,[32],102%
same,residual activity,[33],103%
same,residual activity,[34],117%
same,residual activity,[35],95.8%
same,residual activity,[36],87.4%
same,residual activity,[37],102%
same,residual activity,[38],110%
same,residual activity,[39],102%
same,residual activity,[40],95.4%
same,residual activity,[41],98%
O=C1NC(=O)c2c1c1c3ccccc3n3c1c1c2c2ccccc2n1C1CCC3O1,residual activity,[1],22%
same,residual activity,[2],18.5%
same,residual activity,[3],4.6%
same,residual activity,[4],1.37%
same,residual activity,[5],97%
same,residual activity,[6],69.2%
same,residual activity,[7],69.5%
same,residual activity,[8],12.4%
same,residual activity,[9],25.8%
same,residual activity,[10],1.6%
same,residual activity,[11],4.88%
same,residual activity,[12],36.9%
same,residual activity,[13],14.1%
same,residual activity,[14],23.4%
same,residual activity,[15],27.1%
same,residual activity,[16],-0.0451%
same,residual activity,[17],68%
same,residual activity,[18],79.7%
same,residual activity,[19],57.4%
same,residual activity,[20],0.901%
same,residual activity,[21],49.9%
same,residual activity,[22],8.52%
same,residual activity,[23],2.84%
same,residual activity,[24],89.7%
same,residual activity,[25],32.7%
same,residual activity,[26],29.3%
same,residual activity,[27],88.7%
same,residual activity,[28],1.41%
same,residual activity,[29],98.5%
same,residual activity,[30],23.3%
same,residual activity,[31],22.5%
same,residual activity,[32],9.88%
same,residual activity,[33],11.2%
same,residual activity,[34],134%
same,residual activity,[35],90.2%
same,residual activity,[36],88.7%
same,residual activity,[37],98.4%
same,residual activity,[38],76.9%
same,residual activity,[39],75.4%
same,residual activity,[40],6.06%
same,residual activity,[41],80.4%
